Seven compounds from PubChem BioAssay (NCI) can be followed below.

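The compound was tested at five concentrations on cells cultured in 96-well plates, with a 48-hour exposure period. GI50 marks 50% less growth. Definition used: TGI = concentration required for complete inhibition of growth.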

Test systems include HCT-15 colon; HS 578T breast; K-562 leukemia; MCF7 breast; NCI-H23 lung; SK-MEL-28 melanoma; SN12C renal; SNB-19 CNS; U251 CNS; UO-31 renal.
Holding throughout (assay): inhibition of tumour cell growth, NCI panel, 48 h

For the compound `CON=C1C[C@]2(C[C@@H]3C[C@@H](C/C=C(\C)C[C@@H](C)/C=C/C=C4\CO[C@@H]5[C@H](O)C(C)=C[C@@H](C(=O)O3)[C@]45O)O2)O[C@H](/C(C)=C/C(C)C)[C@H]1C`, the GI50 in the assay with HCT-15 colon is 14.9 µM; in the assay on HS 578T breast it was 16.6 µM; with K-562 leukemia, 3.69 µM; in the assay with MCF7 breast, 15.9 µM; with NCI-H23 lung, 12.6 µM; with SK-MEL-28 melanoma it was 17.5 µM. Moreover, the GI50 with SN12C renal is 14 µM; with SNB-19 CNS, 15.7 µM; in the assay on U251 CNS, 11.3 µM; in the assay on UO-31 renal it was 11.2 µM. Besides, the TGI with HCT-15 colon came to 30.9 µM; in the assay with HS 578T breast, 39.6 µM; with K-562 leukemia, 10.8 µM; in the assay on MCF7 breast it was 30 µM; in the assay on NCI-H23 lung, 28.4 µM; with SK-MEL-28 melanoma, 31.7 µM. For the same compound, the TGI turned out to be 28.3 µM in the assay with SN12C renal, 35.3 µM with SNB-19 CNS, 24.3 µM in the assay with U251 CNS and 23.3 µM with UO-31 renal.

Take `O=C(Nc1ccc(Oc2ccc(NC(=O)Nc3ccccc3Cl)cc2)cc1)Nc1ccccc1Cl`: the GI50 was 0.677 µM in the assay on HCT-15 colon; 17.8 µM with HS 578T breast; 2.63 µM in the assay with K-562 leukemia; 8.54 µM in the assay on MCF7 breast; 3.61 µM with NCI-H23 lung; 3.54 µM in the assay with SK-MEL-28 melanoma. Moreover, the GI50 in the assay with SN12C renal is 7.55 µM; in the assay with SNB-19 CNS, 17 µM; in the assay with U251 CNS it was 1.71 µM; with UO-31 renal, 34.8 µM. In addition, the TGI was > 100 µM in the assay with HCT-15 colon; > 100 µM in the assay on HS 578T breast; > 40.1 µM with K-562 leukemia; > 100 µM with MCF7 breast; 18.5 µM in the assay with NCI-H23 lung; > 100 µM with SK-MEL-28 melanoma. In addition, the TGI in the assay on SN12C renal was > 100 µM; in the assay with SNB-19 CNS it was 43.8 µM; with U251 CNS, 20.5 µM; in the assay on UO-31 renal it was > 95.8 µM.

In the case of `COc1ccc(/C(=C/c2ccc3ccccc3c2)c2nn[nH]n2)cc1OC`, the GI50 is 2.92 µM in the assay on HCT-15 colon; 2.23 µM in the assay with HS 578T breast; 0.678 µM in the assay with K-562 leukemia; 4.12 µM in the assay with MCF7 breast; 5.29 µM in the assay on NCI-H23 lung; 8.07 µM in the assay with SK-MEL-28 melanoma. Besides, the GI50 with SN12C renal was 9.97 µM; in the assay with SNB-19 CNS it was 7.84 µM; in the assay with U251 CNS it was 4.46 µM; with UO-31 renal it was 5.59 µM. Also, the TGI is > 100 µM in the assay on HCT-15 colon; 53.6 µM with HS 578T breast; > 100 µM with K-562 leukemia; > 100 µM in the assay on MCF7 breast; > 100 µM with NCI-H23 lung; > 100 µM with SK-MEL-28 melanoma. Further, the TGI in the assay with SN12C renal, with SNB-19 CNS, in the assay on U251 CNS and in the assay on UO-31 renal was > 100 µM in each case.

In the case of `CCC(CC)c1cc(N[C@H]2CC[C@H](N)C2)n2nccc2n1`, the GI50 with HCT-15 colon is 2.23 µM; in the assay on HS 578T breast it was 2.27 µM; in the assay with K-562 leukemia it was 0.642 µM; with MCF7 breast it was 0.328 µM; in the assay on NCI-H23 lung it was 2.2 µM; with SK-MEL-28 melanoma, 1.93 µM. Further, the GI50 is 0.691 µM in the assay on SN12C renal, 1.06 µM in the assay on SNB-19 CNS, 0.858 µM in the assay with U251 CNS and 2.08 µM in the assay on UO-31 renal. The TGI in the assay on HCT-15 colon was > 100 µM; in the assay with HS 578T breast it was 9.44 µM; in the assay with K-562 leukemia, > 100 µM; in the assay with MCF7 breast, > 100 µM; in the assay with NCI-H23 lung it was 8.29 µM; in the assay on SK-MEL-28 melanoma, 5.24 µM. Besides, the TGI with SN12C renal was > 100 µM; with SNB-19 CNS, > 100 µM; in the assay on U251 CNS it was > 100 µM; in the assay with UO-31 renal, 5.69 µM.

Regarding `COc1cc(N2CCN(C(C)C)CC2)ccc1Nc1nc(Nc2ccc(F)cc2C(=O)NCC(O)CO)c2cc[nH]c2n1` (stereo not given), the GI50 with HCT-15 colon was > 25 µM; with HS 578T breast it was 6.9 µM; with K-562 leukemia, > 19.9 µM; with MCF7 breast, 0.276 µM; in the assay on NCI-H23 lung it was 4.22 µM; in the assay on SK-MEL-28 melanoma it was > 25 µM. Also, the GI50 was 7.62 µM in the assay with SN12C renal, 7.41 µM in the assay with SNB-19 CNS, 5.22 µM in the assay with U251 CNS and > 25 µM in the assay with UO-31 renal. In addition, the TGI in the assay on HCT-15 colon was > 25 µM; with HS 578T breast, > 25 µM; in the assay on K-562 leukemia, > 25 µM; in the assay with MCF7 breast, > 25 µM; with NCI-H23 lung it was > 23.3 µM; in the assay with SK-MEL-28 melanoma, > 25 µM. The TGI in the assay on SN12C renal, with SNB-19 CNS, in the assay on U251 CNS and in the assay with UO-31 renal was > 25 µM in each case.

Regarding `O=c1c2ccccc2nc2n1CCc1c-2[nH]c2cc3c(cc12)OCO3`, the TGI is > 25 µM with HCT-15 colon; 17.5 µM with HS 578T breast; > 25 µM in the assay on K-562 leukemia; > 25 µM in the assay on MCF7 breast; > 25 µM in the assay with SK-MEL-28 melanoma; > 25 µM with SN12C renal. The TGI with SNB-19 CNS was 21.9 µM; in the assay on U251 CNS, > 25 µM; in the assay on UO-31 renal, > 25 µM. In addition, the GI50 in the assay on HS 578T breast is 5.05 µM.

On to `Cc1cc2c(C(=O)NCC#N)cccc2n1-c1nc2c(c(NCc3ccccc3)n1)CCCC2`, for which the GI50 in the assay on HCT-15 colon was 0.192 µM; in the assay on HS 578T breast, 0.386 µM; with K-562 leukemia it was 0.372 µM; in the assay with MCF7 breast it was 0.25 µM; in the assay on NCI-H23 lung it was 0.285 µM; in the assay on SK-MEL-28 melanoma it was 0.406 µM. In addition, the GI50 is 0.31 µM with SN12C renal, 0.499 µM in the assay with SNB-19 CNS, 0.227 µM in the assay on U251 CNS and 0.305 µM in the assay on UO-31 renal. The TGI in the assay on HCT-15 colon was 0.404 µM; in the assay on HS 578T breast it was 47.5 µM; in the assay with K-562 leukemia it was > 100 µM; in the assay on MCF7 breast, 8.17 µM; with NCI-H23 lung it was 1.19 µM; in the assay on SK-MEL-28 melanoma it was 1.86 µM. The TGI in the assay on SN12C renal is 0.904 µM; with SNB-19 CNS, 2.91 µM; with U251 CNS, 0.521 µM; with UO-31 renal it was 1.11 µM.
